Measurements from US20200147158A1, “SANGHUANGPORUS SANGHUANG STRAINS AND THEIR PRODUCTS, EXTRACTS AND APPLICATIONS” (FOOD INDUSTRY RESEARCH AND DEVELOPMENT INSTITUTE, priority 2018, published 2020).

How the values were obtained:
Format in all cases: cell-based
ER-β = molecular target: T1, ER-β (Homo sapiens, UniProt Q92731); assay: Evaluation of SERMs activity: ERβ/pERE-TA-SEAP reporter gene assay in transfected CV-1 cells; details: for ER-β/ER-α: ratio of relative ER-β to ER-α activity; for ER Subtype Activity ER-β: ratio to untreated cells (Medium only)
T1 construct: expressed in transfected cells; host or cells: CV-1 (Cercopithecus aethiops kidney cells)
Procedure: (§1) CV-1 cells (Cercopithecus aethiops kidney cells) were grown at a confluence of 70-80% and were harvested in a cell suspension at a concentration of 5×10^4 cell/ml. The cell suspensions were added to each well (100 μl/well) of 96-well plate and the 96-well plate was incubated at 37° C., 5% CO2 incubator overnight.
(§2) 500 μl jetPRIME® buffer. 5 μg pERE-TA-SEAP and 5 μg ERα DNA plasmid (or ERβ DNA plasmid) were mixed in 1.5 ml eppendorf, then 20 μl jetPRIME® Transfection Reagent and 1.5 ml medium were added. The DNA mixtures were added to each well of 96-well plate (20 μl) and the 96-well plate was incubated at 37° C., 5% CO2 incubator for 4 hours.
(§3) The supernatant solutions were removed from each well of 96-well plate, then 90 μl charcoal-treated. FBS medium without phenol red were added to each well of 96-well plate. The samples to be tested were added to the wells of 96-well plate, which was incubated in 37° C., 5% CO2 incubator for 48 to 72 hours. The cells were harvested for the subsequent reporter gene assay and cell toxicity assay.
25 μl cell culture supernatants were collected from the 96-well plate and, then added to a new luminescence microplate, which was incubated at 65° C. water bath for 30 minutes to remove the activity endogenous alkaline phosphatase, and was placed on ice for 5 minutes and was centrifuged (1,000 rpm) for one minute. 25 μl PhosphaLight™ assay buffers were added at room temperature for 5 minutes and 25 μl CSPD (Disodium 3-(4-methoxyspiro {1,2-dioxetane-3,2′-(5′-chloro)tricyclo [3.3 1.13,7]decan}-4-yl phenyl phosphate)-containing Phospha-Light™ reaction buffers were added at room temperature for 20 minutes. The luminescence microplate was placed in Victor™ Light 1420 Luminescence Counter and the SEAP enzyme activities were measured.

Estrogen Receptor (ER) = molecular target: T2, Estrogen Receptor (ER) (Homo sapiens, UniProt P03372); assay: ER total activity assay (pERE-TA-SEAP reporter in MCF-7 cells); details: for ER activity (FIG. 1, in words): 2 μg/ml, 5 μg/ml and 10 μg/ml; for ER activity compared with 17-β Estradiol (positive control), FIG. 1, in words: MCF-7 cells
T2 construct: endogenous in cells; host or cells: MCF-7
T2 sequence (P03372 1-595): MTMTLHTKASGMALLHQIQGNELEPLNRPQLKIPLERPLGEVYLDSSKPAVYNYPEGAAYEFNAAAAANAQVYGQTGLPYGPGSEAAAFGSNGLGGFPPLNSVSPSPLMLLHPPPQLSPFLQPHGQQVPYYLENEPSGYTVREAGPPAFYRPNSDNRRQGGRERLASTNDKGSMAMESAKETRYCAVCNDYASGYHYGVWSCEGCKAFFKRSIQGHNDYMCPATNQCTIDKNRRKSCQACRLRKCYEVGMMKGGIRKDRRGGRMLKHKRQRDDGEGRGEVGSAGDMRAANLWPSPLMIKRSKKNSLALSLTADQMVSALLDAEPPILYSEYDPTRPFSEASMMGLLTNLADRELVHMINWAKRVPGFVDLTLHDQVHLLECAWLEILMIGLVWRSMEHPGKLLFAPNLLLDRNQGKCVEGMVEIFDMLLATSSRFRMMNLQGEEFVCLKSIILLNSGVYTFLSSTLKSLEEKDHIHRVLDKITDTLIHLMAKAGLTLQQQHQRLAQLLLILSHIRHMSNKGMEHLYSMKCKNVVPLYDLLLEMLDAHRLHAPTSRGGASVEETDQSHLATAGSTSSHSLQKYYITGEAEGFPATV
Procedure: ER is a ligand-activated enhancer protein that is a member of the steroid/nuclear receptor superfamily. […] Secreted alkaline phosphatase (SEAP) is a reporter widely used to study promoter activity or gene expression.
The 1 ml 0.05% trypsin-EDTA solution was added to 80% confluence (on Day 5, if cells were in log phase) of MCF-7 cells in a T75 flask at 37° C. for 5 minutes. After the cells were detached, 5 ml charcoal-treated FBS-containing medium were added to suspend the cells. The charcoal-treated FBS-containing PBS medium were added 2 ml cell suspensions to the final volume of 10 ml of a mixture. The mixture was dispensed into each well (100 μl/well, 2×10^4 cells/well) of a 96-well plate by 8-channel pipette, and the 96-well plate was placed at 37° C. and 5% CO2 overnight to obtain about 70% confluence.
To transfect cells to express the ERE, a transfection mixture was prepared. TransIT®-LT1 Transfection Reagent is a broad spectrum reagent that provides high efficiency plasmid DNA delivery in many mammalian cell types including primary cells. Specifically, 1 ml Opti-MEM®, 14 μl TransIT®-LT1 Transfection Reagent and 5 μg pERE-TA-SEAP were added into a 1.5 ml Eppendorf and let the transfection mixture stand for 15-30 minutes.
Transfection mixture containing TransIT-DNA was dispensed into each well (10 μl/well) of a 96-well plate, and the 96-well plate was placed at 37° C. and 5% CO2 for 24 hours. The supernatants were removed from the 96-well plate using 8-channel pipette.
(§4) 25 μl cell culture supernatants were collected from the 96-well plate and, then added to a new luminescence microplate, which was incubated at 65° C. water bath for 30 minutes to remove the activity endogenous alkaline phosphatase, and was placed on ice for 5 minutes and was centrifuged (1,000 rpm) for one minute.

ER-α = molecular target: T3, ER-α (Homo sapiens, UniProt P03372); assay: Evaluation of SERMs activity: ERα/pERE-TA-SEAP reporter gene assay in transfected CV-1 cells; details: 25 μg/mL, ratio to untreated cells (Medium only)
T3 construct: expressed in transfected cells; host or cells: CV-1 (Cercopithecus aethiops kidney cells)
T3 sequence (P03372 1-595): T2 sequence (P03372 1-595)
Procedure: as §1, §2, §3, §4

T1 sequence (Q92731 whole entry, species assumed): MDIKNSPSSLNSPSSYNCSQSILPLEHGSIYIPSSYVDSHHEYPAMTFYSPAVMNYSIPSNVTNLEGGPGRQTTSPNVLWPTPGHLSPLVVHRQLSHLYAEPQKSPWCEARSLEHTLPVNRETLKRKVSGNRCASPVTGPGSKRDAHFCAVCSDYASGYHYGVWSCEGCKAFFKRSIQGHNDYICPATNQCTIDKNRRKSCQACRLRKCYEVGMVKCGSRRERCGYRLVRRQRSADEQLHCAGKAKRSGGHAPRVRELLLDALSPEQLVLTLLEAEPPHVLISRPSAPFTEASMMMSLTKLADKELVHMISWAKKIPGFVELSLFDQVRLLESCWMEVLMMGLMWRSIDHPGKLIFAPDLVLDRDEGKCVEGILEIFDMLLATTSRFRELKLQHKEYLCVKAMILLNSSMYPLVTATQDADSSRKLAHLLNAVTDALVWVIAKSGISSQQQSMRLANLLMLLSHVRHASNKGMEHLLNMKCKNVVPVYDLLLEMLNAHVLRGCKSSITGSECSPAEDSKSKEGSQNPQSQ

Structure (SMILES) | ER-β versus ER-α activity (in words) (ER-β) | ER-β/ER-α (ER-β; 25 μg/mL) | ER Subtype Activity ER-β (ER-β; 25 μg/mL) | ER activity (FIG. 1, in words) (Estrogen Receptor (ER)) | ER activity compared with 17-β Estradiol (positive control), FIG. 1, in words (Estrogen Receptor (ER)) | ER Subtype Activity ER-α (ER-α) | ER Subtype Activity ER-β (ER-β; 200 nM)
C=C1CCCC(C)(C)C1CC/C(C)=C/C(=O)O (stereo not shown) [Compound 1, (E)-5-(2,2-dimethyl-6-methylenecyclohexyl)-3-methylpent-2-enoic acid] | superior ER-β activity over ER-α activity | 3.1 | 3.80 ± 0.11 | significant ER activity | superior ER activity over 17-β Estradiol | 1.21 ± 0.53 | –
C[C@]12CC[C@@H]3c4ccc(O)cc4CC[C@H]3[C@@H]1CC[C@@H]2O [17-β Estradiol (E2), 17-β Estradiol, reference compound] | – | – | – | – | – | – | 3.70 ± 0.45
C=C1CCCC(C)(C)[C@@H]1/C=C/C(C)=C/C(=O)O [Compound 2, (+)-(2E,-4E)-5-((S)-2,2-dimethyl-6-methylenecyclohexyl)-3-methylpenta-2,4-dienoic acid] | superior ER-β activity over ER-α activity | 2.2 | 2.53 ± 0.77 | significant ER activity | superior ER activity over 17-β Estradiol | 1.16 ± 0.16 | –
